# Results: BindingDB's records for doi:10.1016/j.ejmech.2019.05.010 (Queensland University of Technology, 2019)
# Molecular target: Genome polyprotein (Dengue virus type 2 (strain Thailand/16681/1984), UniProt P29990)
# Assay: Inhibition of DENV2 NS2B-NS3 serine protease expressed in human Huh7 cells after 3 days by luciferase reporter gene assay
structure (smiles),measurement,value
CC(=O)O[C@H]1CC(C)(C)C(=C=C/C(C)=C/C=C/C=C/C=C(C)/C=C2C=C(/C=C/[C@@]34O[C@]3(C)C[C@@H](O)CC4(C)C)C(=O)O/2)[C@](C)(O)C1,EC50,4.5 µM
